For one data set, the system named is Staphylococcus aureus. Briefly: Antimicrobial activity, agar dilution method. The conditions noted are these: for MIC Staphylococcus aureus: agar dilution, paper disks, 24 h incubation, 37 °C; for MIC: Staphylococcus aureus, 24 h, read-out: MIC Staphylococcus aureus.
Another data set deals with Pseudomonas aeruginosa. Briefly: Antimicrobial activity, agar dilution method. The following applies: for MIC Pseudomonas aeruginosa: agar dilution, paper disks, 24 h incubation, 37 °C; for MIC: Pseudomonas aeruginosa, 24 h. (In general: Agar dilution tests growth on a series of plates holding different concentrations.)
The test system of a further data set is Enterobacter aerogenes. Briefly: Antimicrobial activity, agar dilution method. The conditions noted are these: for MIC Enterobacter aerogenes: agar dilution, paper disks, 24 h incubation, 37 °C; for MIC: Klebsiella aerogenes, 24 h, read-out: MIC Enterobacter aerogenes.
The next data set deals with Candida albicans. Kind of data set: Antimicrobial activity, agar dilution method. The following applies: for MIC: Candida albicans, 24 h, read-out: MIC Candida albicans.
Data set [1] in a line: Cytotoxicity against confluent MDCK cells by MTT method. The format is cell-based. The following applies: dog, read-out: CC50 (50% cytotoxicity concentration). On the technique in general: Tetrazolium dyes change colour on reduction, which living cells bring about.
Procedure: (§1) Cytotoxicity against HL-60 and BEL-7402 cancer cell lines and confluent MDCK cells was assayed by the MTT method [28]. Cell lines were grown in RPMI-1640 supplemented with 10% FBS under a humidified atmosphere of 5% CO2 and 95% air at 37 °C. […] Then, 2 μL of the test solutions (in MeOH) were added to each well and further incubated for 72 h. The MTT solution (20 μL, 5 mg/mL in IPMI-1640 medium) was then added to each well and incubated for 4 h. Old medium containing MTT (150 μL) was then gently replaced by DMSO and pipetted to dissolve any formazan crystals formed. Absorbance was then determined on a SPECTRA MAX PLUS plate reader at 540 nm. The CC50 was calculated as the compound concentration necessary to reduce cell viability by 50%.
Another data set relates to HL-60 cell line. Briefly: in vitro. The conditions noted are these: human.
Data set [2] has as its system influenza virus (A/Puerto Rico/8/34 (H1N1), PR/8). Kind of data set: Antiviral activity against H1N1, CPE inhibition assay. It counts as cell-based. The conditions noted are these: read-out: IC50 anti-H1N1 activity.
Another data set relates to BEL-7402 cell line. Briefly: in vitro. The following applies: human.
[3] abbreviates: read-out: MIC Pseudomonas aeruginosa, agar dilution, paper disks, 24 h incubation, 37 °C.

≈ marks a conversion by molar mass, not a printed value. Where two headings read alike, the source gives them in different places.

Procedure for BEL-7402 cell line: as §1
Procedure for Candida albicans: (§2) Antimicrobial activity against E. aerogenes, P. aeruginosa, S. aureus and C. albicans was evaluated using an agar dilution method [29]. The tested strains were cultivated in LB agar plates for bacteria and in YPD agar plates for C. albicans, at 37 °C. Compounds and positive controls were dissolved in 5% DMSO-H2O at different concentrations from 1000 to 62.5 μg/mL and then from 50 to 0.78 μg/mL, using continuous 2-fold dilution. The test solutions (5 μL) were absorbed onto paper disks (5 mm diameter) and placed on the assay plates. After 24 h incubation, zones of inhibition (mm in diameter) were recorded. The minimum inhibitory concentrations were defined as the lowest concentration at which an inhibition zone could be observed.
Procedure for Enterobacter aerogenes: as §2
Procedure for HL-60 cell line: as §1
Procedure for Pseudomonas aeruginosa: as §2
Procedure for Staphylococcus aureus: as §2

In the case of `CC(O)C(=O)O.O=C(O)c1cn(C2CC2)c2cc(N3CCNCC3)c(F)cc2c1=O` [Ciprofloxacinlactate, reference compound], the “MIC Staphylococcus aureus” value against Staphylococcus aureus is 1 µM. Moreover, the “MIC Pseudomonas aeruginosa” value in the data set on Pseudomonas aeruginosa worked out at 30 µM. Besides, the “MIC Enterobacter aerogenes” value against Enterobacter aerogenes amounted to 1 µM.
As a reminder, the MIC is the smallest concentration in the dilution series that meets the test's criterion for growth inhibition. Regarding `COC(=O)c1cccc(O)c1NC(=O)c1ccccc1NC(=O)c1cccnc1` [Compound 1, methyl 3-hydroxy-2-(2-(nicotinamido)benzamido)benzoate], the MIC with Staphylococcus aureus is 63.9 µM (≈ 25 µg/mL); in the data set with Pseudomonas aeruginosa (setting [3]), 63.9 µM (≈ 25 µg/mL); in the data set with Enterobacter aerogenes it was above 100 µM; with Candida albicans, above 100 µM. In addition, the “MIC Pseudomonas aeruginosa” value with Pseudomonas aeruginosa is above 100 µM.
Turning to `COC(=O)c1cccc(O)c1-n1c(-c2cccnc2)nc2ccccc2c1=O` [Compound 2, methyl 3-hydroxy-2-(4-oxo-2-(pyridin-3-yl)quinazolin-3(4H)-yl)benzoate], the MIC in the data set with Staphylococcus aureus is above 100 µM; with Pseudomonas aeruginosa (setting [3]) it was above 100 µM; with Enterobacter aerogenes, 33.5 µM (≈ 12.5 µg/mL); with Candida albicans, above 100 µM.
Take `COC(=O)[C@]1(Cc2ccc(O)c(CCC(C)(C)O)c2)OC(=O)C(O)=C1c1ccc(O)cc1` [Compound 3, (R)-methyl 4-hydroxy-2-(4-hydroxy-3-(3-hydroxy-3-methylbutyl)benzyl)-3-(4-hydroxyphenyl)-5-oxo-2,5-dihydrofuran-2-carboxylate]: the MIC in the data set on Staphylococcus aureus, in the data set with Pseudomonas aeruginosa (read-out: MIC Pseudomonas aeruginosa), in the data set on Enterobacter aerogenes and in the data set on Candida albicans was above 100 µM each time.
With `COC(=O)c1cc(OC)c(OC)c(OC)c1NC(=O)c1ccccc1NC(=O)c1cccnc1` [Compound 4, methyl 3,4,5-trimethoxy-2-(2-(nicotinamido)benzamido)benzoate], the MIC with Staphylococcus aureus is 52.4 µM (≈ 24.4 µg/mL); in the data set on Pseudomonas aeruginosa (setting [3]), above 100 µM; with Enterobacter aerogenes, above 100 µM; in the data set with Candida albicans, above 100 µM.
What is called IC50 is the concentration needed to halve the response being measured. With `COC(=O)[C@]1(Cc2ccc(O)c(CC=C(C)C)c2)OC(=O)C(O)=C1c1ccc(O)cc1` [Compound 5, butyrolactone I], the CC50 at 72 h in data set [1] was 976 µM. In the data set with HL-60 cell line, this compound yielded an IC50 at 72 h of 57.5 µM. In addition, the half-inhibitory concentration (IC50) in data set [2] (MDCK, 48 h) was 143 µM.
As to `C/C=C/C1=CC(=O)[C@@H](O)[C@@H]1O` [Compound 15, (+)-terrein], the “MIC Staphylococcus aureus” value with Staphylococcus aureus is above 100 µM. Besides, in the data set with Pseudomonas aeruginosa, the “MIC Pseudomonas aeruginosa” value was above 100 µM. Moreover, the “MIC Enterobacter aerogenes” value with Enterobacter aerogenes is above 100 µM. The “MIC Candida albicans” value against Candida albicans (agar dilution, YPD agar, paper disks, 24 h incubation, 37 °C) was above 100 µM.
For the compound `CC(=O)N1CCN(c2ccc(OCC3COC(Cn4ccnc4)(c4ccc(Cl)cc4Cl)O3)cc2)CC1` (stereo not shown) [Ketoconazole, reference compound], the MIC in the data set with Candida albicans was determined as 5 µM (≈ 2.66 µg/mL).
Consider `NC(=O)c1ncn([C@@H]2O[C@H](CO)[C@@H](O)[C@H]2O)n1` [Ribavirin, reference compound], for which the IC50 in data set [2] (CPE inhibition in MDCK cells, 48 h post-infection) is 101 µM.
Take `COc1cc([C@@H]2c3cc4c(cc3[C@@H](O[C@@H]3O[C@@H]5CO[C@@H](C)O[C@H]5[C@H](O)[C@H]3O)[C@H]3COC(=O)[C@H]23)OCO4)cc(OC)c1O` [Vp-16, Etoposide, reference compound]: the IC50 at 72 h stood at 0.83 µM in the data set on BEL-7402 cell line and 0.042 µM in the data set on HL-60 cell line.

For the origin of these results see publication PMC3164379, “Three New Compounds from Aspergillus terreus PT06-2 Grown in a High Salt Medium” (Marine Drugs, 2011).
